Patent publication US12324893B2, “Triptan microporation delivery system” (PassPort Technologies, Inc., priority 2019, dated 2025)

Columns and labels:
[1] = Effect of filament density, poration energy and filament array size on PK profile (Examples 7-9); set-up: species or system guinea pigs; conditions: guinea pig, in vivo, topical or ocular
Experimental: (§1) This example describes various effects of filament density. To investigate the effect of filament density on PK profile and side effects (pain by poration and skin irritation), these studies were conducted. The filament density mainly affects the area to be utilized for the transfer of body fluid and ingredients in between skin and patch. The range of filament density was 100 filaments/cm^2 to 400 filaments/cm^2, and the poration energy was from 3 to 4 mJ/filament.
(§2) This example describes various effects to heating energy. The poration energy is related to the pore shape such as depth and width.
(§3) This example describes the selection of a desirable filament array size. Assuming the higher dose than 2 mg dose with the conditions 400 filaments/cm^2 filament density and 4 or 5 mJ/filament energy, filament array size may need to be made bigger. The range of dose was 0.5 to 4 mg, and the range of filament array size was 1.0 to 2.0 cm^2.

[2] = Pain by poration (Examples 7-9); type: in vivo, guinea pigs
Experimental: as §1, §2, §3

[3] = test system: skin; assay: Skin irritation at different poration conditions (Examples 7-9); type: in vivo, guinea pigs
Experimental: A skin irritation examination was performed following the patch removal. The skin irritation examination scale was an assessment of the skin directly under the matrix.
as §1, §2, §3

[4] = 2 mg, Table 15 # 4: 400 filaments/cm^2, 5 mJ/filament, area 1.0 cm^2, patch 2.00 mg Zolmitriptan
[5] = 2 mg, Table 17 # 2: dose 2.00 mg, 4 mJ/filament, filament array area 1.0 cm^2, 400 filaments/cm^2
[6] = 3 mg, Table 17 # 3: dose 3.00 mg, 4 mJ/filament, filament array area 1.0 cm^2, 400 filaments/cm^2
[7] = 4 mg, Table 17 # 4: dose 4.00 mg, 4 mJ/filament, filament array area 1.5 cm^2, 400 filaments/cm^2
[8] = 4 mg, Table 17 # 5: dose 4.00 mg, 4 mJ/filament, filament array area 2.0 cm^2, 400 filaments/cm^2
[9] = 4 mg, Table 17 # 6: dose 4.00 mg, 5 mJ/filament, filament array area 1.5 cm^2, 400 filaments/cm^2
[10] = Table 17 #1: dose 0.50 mg, 4 mJ/filament, 1.0 cm^2, 400 filaments/cm^2
[11] = Table 17 # 2: dose 2.00 mg, 4 mJ/filament, 1.0 cm^2, 400 filaments/cm^2
[12] = Table 17 # 3: dose 3.00 mg, 4 mJ/filament, 1.0 cm^2, 400 filaments/cm^2
[13] = Table 17 # 4: dose 4.00 mg, 4 mJ/filament, 1.5 cm^2, 400 filaments/cm^2
[14] = Table 17 # 5: dose 4.00 mg, 4 mJ/filament, 2.0 cm^2, 400 filaments/cm^2
[15] = Table 17 # 6: dose 4.00 mg, 5 mJ/filament, 1.5 cm^2, 400 filaments/cm^2
[16] = Table 13 # 1: 100 filaments/cm^2, 3 mJ/filament, 1.0 cm^2, 2.00 mg patch
[17] = Table 13 # 2: 200 filaments/cm^2, 3 mJ/filament, 1.0 cm^2, 2.00 mg patch
[18] = Table 13 # 3: 400 filaments/cm^2, 3 mJ/filament, 1.0 cm^2, 2.00 mg patch
[19] = Table 13 # 4: 100 filaments/cm^2, 4 mJ/filament, 1.0 cm^2, 2.00 mg patch
[20] = Table 13 # 5: 200 filaments/cm^2, 4 mJ/filament, 1.0 cm^2, 2.00 mg patch
[21] = Table 13 # 6: 400 filaments/cm^2, 4 mJ/filament, 1.0 cm^2, 2.00 mg patch
[22] = Table 15 # 1: 400 filaments/cm^2, 2 mJ/filament, 1.0 cm^2, 2.00 mg patch
[23] = Table 15 # 2: 400 filaments/cm^2, 3 mJ/filament, 1.0 cm^2, 2.00 mg patch
[24] = Table 15 # 3: 400 filaments/cm^2, 4 mJ/filament, 1.0 cm^2, 2.00 mg patch
[25] = Table 15 # 4: 400 filaments/cm^2, 5 mJ/filament, 1.0 cm^2, 2.00 mg patch

`CN(C)CCc1c[nH]c2ccc(C[C@H]3COC(=O)N3)cc12` [Zolmitriptan] showed a Tmax ([1]; 2 mg, Table 15 # 3: 400 filaments/cm^2, 4 mJ/filament, area 1.0 cm^2, patch 2.00 mg Zolmitriptan) of 1.06 ± 0.16 h, an AUC [1, 4] of 1970 ± 108 ng·h/mL and a Cmax [1, 4] of 752 ± 89 ng/mL. The Tmax [1, 4] was 1.33 ± 0.33 h, the AUC [1, 5] was 2100 ± 275 ng·h/mL and the Cmax [1, 5] was 896 ± 191 ng/mL. It also gave a Tmax [1, 5] of 1.06 ± 0.16 h, an AUC [1, 6] of 2350 ± 152 ng·h/mL and a Cmax [1, 6] of 756 ± 115 ng/mL. The Tmax [1, 6] was 1.63 ± 0.13 h, the AUC [1, 7] was 3660 ± 189 ng·h/mL and the Cmax [1, 7] was 1310 ± 129 ng/mL. The Tmax [1, 7] was 1.33 ± 0.17 h, the AUC [1, 8] was 4310 ± 315 ng·h/mL and the Cmax [1, 8] was 2200 ± 358 ng/mL. For the same compound, the Tmax [1, 8] was 1.25 ± 0.14 h, the AUC [1, 9] was 4030 ± 506 ng·h/mL and the Cmax [1, 9] was 1710 ± 185 ng/mL. The Tmax [1, 9] was 0.75 ± 0.14 h, the “Pain by poration ± SD” value ([2]; Table 13 # 1: 100 filaments/cm^2, 3 mJ/filament, area 1.0 cm^2) was 0.0 ± 0.0 and the “Pain by poration ± SD” value ([2]; Table 13 # 2: 200 filaments/cm^2, 3 mJ/filament, area 1.0 cm^2) was 0.6 ± 0.5. For the same compound, the “Pain by poration ± SD” value ([2]; Table 13 # 3: 400 filaments/cm^2, 3 mJ/filament, area 1.0 cm^2) was 0.5 ± 0.6, the “Pain by poration ± SD” value ([2]; Table 13 # 4: 100 filaments/cm^2, 4 mJ/filament, area 1.0 cm^2) was 0.8 ± 1.0 and the “Pain by poration ± SD” value ([2]; Table 13 # 5: 200 filaments/cm^2, 4 mJ/filament, area 1.0 cm^2) was 1.8 ± 0.4. For the same compound, the “Pain by poration ± SD” value ([2]; Table 13 # 6: 400 filaments/cm^2, 4 mJ/filament, area 1.0 cm^2) was 1.8 ± 0.5, the “Pain by poration ± SD” value ([2]; Table 15 # 1: 400 filaments/cm^2, 2 mJ/filament, area 1.0 cm^2) was 0.3 ± 0.5 and the “Pain by poration ± SD” value ([2]; Table 15 # 2: 400 filaments/cm^2, 3 mJ/filament, area 1.0 cm^2) was 0.5 ± 0.6. For the same compound, the “Pain by poration ± SD” value ([2]; Table 15 # 3: 400 filaments/cm^2, 4 mJ/filament, area 1.0 cm^2) was 1.8 ± 0.5, the “Pain by poration ± SD” value ([2]; Table 15 # 4: 400 filaments/cm^2, 5 mJ/filament, area 1.0 cm^2) was 0.8 ± 1.0 and the “Pain by poration ± SD” value [2, 10] was 0.5 ± 0.6. For the same compound, the “Pain by poration ± SD” value [2, 11] was 1.8 ± 0.5, the “Pain by poration ± SD” value [2, 12] was 0.3 ± 0.5 and the “Pain by poration ± SD” value [2, 13] was 2.3 ± 0.5. The “Pain by poration ± SD” value [2, 14] was 2.8 ± 0.5, the “Pain by poration ± SD” value [2, 15] was 2.8 ± 0.5 and the “Skin irritation relief ± SD (Days to recover to score 1)” value (from here on “Skin irritation relief ± SD”) [3, 16] was 0.0 ± 0.0 days. The “Skin irritation ± SD (Just after patch removal)” value (from here on “Skin irritation ± SD”) [3, 16] was 0.8 ± 0.3, the “Skin irritation relief ± SD” value [3, 17] was 1.8 ± 0.8 days and the “Skin irritation ± SD” value [3, 17] was 2.2 ± 0.4. The “Skin irritation relief ± SD” value [3, 18] was 2.8 ± 1.3 days, the “Skin irritation ± SD” value [3, 18] was 1.9 ± 0.3 and the “Skin irritation relief ± SD” value [3, 19] was 1.8 ± 0.5 days. The “Skin irritation ± SD” value [3, 19] was 1.6 ± 0.3, the “Skin irritation relief ± SD” value [3, 20] was 3.0 ± 1.9 days and the “Skin irritation ± SD” value [3, 20] was 2.1 ± 0.7. The “Skin irritation relief ± SD” value [3, 21] was 3.2 ± 0.8 days, the “Skin irritation ± SD” value [3, 21] was 2.1 ± 0.3 and the “Skin irritation relief ± SD” value [3, 22] was 2.3 ± 1.2 days. The “Skin irritation ± SD” value [3, 22] was 1.8 ± 0.3, the “Skin irritation relief ± SD” value [3, 23] was 2.8 ± 1.3 days and the “Skin irritation ± SD” value [3, 23] was 1.9 ± 0.3. The “Skin irritation relief ± SD” value [3, 24] was 3.2 ± 0.8 days, the “Skin irritation ± SD” value [3, 24] was 2.1 ± 0.3 and the “Skin irritation relief ± SD” value [3, 25] was 2.6 ± 1.7 days. For the same compound, the “Skin irritation ± SD” value [3, 25] was 2.3 ± 0.3, the “Skin irritation relief ± SD” value [3, 10] was 2.5 ± 1.0 days and the “Skin irritation ± SD” value [3, 10] was 1.6 ± 0.5. The “Skin irritation relief ± SD” value [3, 11] was 3.2 ± 0.8 days, the “Skin irritation ± SD” value [3, 11] was 2.1 ± 0.3 and the “Skin irritation relief ± SD” value [3, 12] was 3.0 ± 0.5 days. For the same compound, the “Skin irritation ± SD” value [3, 12] was 2.0 ± 0.0, the “Skin irritation ± SD” value [3, 13] was 2.1 ± 0.3 and the “Skin irritation relief ± SD” value [3, 14] was 4.3 ± 0.9 days. The “Skin irritation ± SD” value [3, 14] was 2.0 ± 0.0, the “Skin irritation relief ± SD” value [3, 15] was 5.5 ± 1.9 days and the “Skin irritation ± SD” value [3, 15] was 1.9 ± 0.3.
